Counter-ions that a name gives are not always drawn.
Biological target: T1, human full-length MKNK1 (Homo sapiens, UniProt Q9BUB5, T385D)
T1 construct: purchased Carna Biosciences 02-145; host or cells: insect cells, baculovirus expression system
Assay: MKNK1 kinase high ATP assay (TR-FRET)
Type: biochemical
Conditions: high ATP (2 mM), 15 min preincubation with enzyme, GST-MKNK1 (T344D)
Method: MKNK1-inhibitory activity at high ATP of compounds of the present invention after their preincubation with MKNK1 was quantified employing the TR-FRET-based MKNK1 high ATP assay as described in the following paragraphs.
A recombinant fusion protein of Glutathione-S-Transferase (GST, N-terminally) and human full-length MKNK1 (amino acids 1-424 and T344D of accession number BAA 19885.1), expressed in insect cells using baculovirus expression system and purified via glutathione sepharose affinity chromatography, was purchased from Carna Biosciences (product no 02-145) and used as enzyme. As substrate for the kinase reaction the biotinylated peptide biotin-Ahx-IKKRKLTRRKSLKG (C-terminus in amide form) was used, which can be purchased e.g. from the company Biosyntan (Berlin-Buch, Germany).
For the assay 50 nL of a 100fold concentrated solution of the test compound in DMSO was pipetted into a black low volume 384well microtiter plate (Greiner Bio-One, Frickenhausen, Germany), 2 μL of a solution of MKNK1 in aqueous assay buffer [50 mM HEPES pH 7.5, 5 mM MgCl2, 1.0 mM dithiothreitol, 0.005% (v/v) Nonidet-P40 (Sigma)] was added and the mixture was incubated for 15 min at 22° C. to allow pre-binding of the test compounds to the enzyme before the start of the kinase reaction. Then the kinase reaction was started by the addition of 3 μL of a solution of adenosine-tri-phosphate (ATP, 3.3 mM=>final conc. in the 5 μL assay volume is 2 mM) and substrate (0.1 μM=>final conc. in the 5 μL assay volume is 0.06 μM) in assay buffer and the resulting mixture was incubated for a reaction time of 30 min at 22° C. The concentration of MKNK1 was adjusted depending of the activity of the enzyme lot and was chosen appropriate to have the assay in the linear range, typical concentrations were in the range of 0.003 μg/mL. The reaction was stopped by the addition of 5 μL of a solution of TR-FRET detection reagents (5 nM streptavidine-XL665 [Cisbio Bioassays, Codolet, France] and 1 nM anti-ribosomal protein […] (pSer236)-antibody from Invitrogen [#44921G] and 1 nM LANCE EU-W1024 labeled ProteinG [Perkin-Elmer, product no. AD0071]) in an aqueous EDTA-solution (100 mM EDTA, 0.1% (w/v) bovine serum albumin in 50 mM HEPES pH 7.5).
The resulting mixture was incubated for 1 h at 22° C. to allow the formation of complex between the phosphorylated biotinylated peptide and the detection reagents. Subsequently the amount of phosphorylated substrate was evaluated by measurement of the resonance energy transfer from the Eu-chelate to the streptavidine-XL. Therefore, the fluorescence emissions at 620 nm and 665 nm after excitation at 350 nm were measured in a TR-FRET reader, e.g. a Rubystar (BMG Labtechnologies, Offenburg, Germany) or a Viewlux (Perkin-Elmer). The ratio of the emissions at 665 nm and at […] was taken as the measure for the amount of phosphorylated substrate. The data were normalised (enzyme reaction without inhibitor=0% inhibition, all other assay components but no enzyme=100% inhibition).

T1 sequence (Q9BUB5 1-424 isoform Q9BUB5-2 T344D): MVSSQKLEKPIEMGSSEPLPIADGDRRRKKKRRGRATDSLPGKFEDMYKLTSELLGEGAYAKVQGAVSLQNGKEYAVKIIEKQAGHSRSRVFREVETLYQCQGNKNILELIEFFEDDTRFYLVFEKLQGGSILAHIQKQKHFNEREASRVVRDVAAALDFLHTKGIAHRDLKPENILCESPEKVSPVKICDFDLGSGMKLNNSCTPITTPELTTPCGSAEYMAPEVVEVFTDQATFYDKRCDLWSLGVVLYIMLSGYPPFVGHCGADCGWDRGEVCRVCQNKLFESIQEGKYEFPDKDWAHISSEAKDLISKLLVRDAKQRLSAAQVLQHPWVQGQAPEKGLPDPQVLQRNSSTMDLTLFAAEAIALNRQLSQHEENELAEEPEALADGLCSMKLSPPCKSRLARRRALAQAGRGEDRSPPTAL

Row | Compound | IC50
1 | COc1cc2[nH]ncc2cc1Nc1ncnc2[nH]c3c(c12)CC(C(=O)NCc1ccccc1)CC3 (racemic) [Example 219, (RS)—N-Benzyl-4-[(6-methoxy-1H-indazol-5-yl)amino]-6,7,8,9-tetrahydro-5H-pyrimido[4,5-b]indole-6-carboxamide] | 1 nM
2 | CCOC(=O)C1CCc2[nH]c3ncnc(Nc4cc(Cl)ccc4OC)c3c2C1 (racemic) [Example 175, (RS)-Ethyl 4-[(5-chloro-2-methoxyphenyl)amino]-6,7,8,9-tetrahydro-5H-pyrimido[4,5-b]indole-6-carboxylate] | 359 nM
3 | CS(=O)(=O)CCCNC(=O)C1CCc2[nH]c3ncnc(Nc4cccc5c4CCCC5)c3c2C1 (racemic) [Example 58, (RS)—N-[3-(Methylsulfonyl)propyl]-4-(5,6,7,8-tetrahydronaphthalen-1-ylamino)-6,7,8,9-tetrahydro-5H-pyrimido[4,5-b]indole-6-carboxamide] | 1170 nM
4 | O=C(O)C1CCc2[nH]c3ncnc(Nc4cc5[nH]c(=O)[nH]c5cc4Cl)c3c2C1 (racemic) [Example 237, (RS)-4-[(6-Chloro-2-oxo-2,3-dihydro-1H-benzimidazol-5-yl)amino]-6,7,8,9-tetrahydro-5H-pyrimido[4,5-b]indole-6-carboxylic acid] | 12300 nM
5 | O=C(Nc1ccccc1)C1CCc2[nH]c3ncnc(Nc4ccccc4OC4CCCC4)c3c2C1 (racemic) [Example 193, (RS)-4-{[2-(Cyclopentyloxy)phenyl]amino}-N-phenyl-6,7,8,9-tetrahydro-5H-pyrimido[4,5-b]indole-6-carboxamide] | 2890 nM
6 | CS(=O)(=O)CCCNC(=O)C1CCc2[nH]c3ncnc(Nc4ccc(S(N)(=O)=O)cc4)c3c2C1 (racemic) [Example 48, (RS)—N-[3-(Methylsulfonyl)propyl]-4-[(4-sulfamoylphenyl)amino]-6,7,8,9-tetrahydro-5H-pyrimido[4,5-b]indole-6-carboxamide] | 2840 nM
7 | CC(C)NC(=O)C1CCc2[nH]c3ncnc(Nc4ccc5[nH]ncc5c4)c3c2C1 (racemic) [Example 227, (RS)-4-(1H-Indazol-5-ylamino)-N-(propan-2-yl)-6,7,8,9-tetrahydro-5H-pyrimido[4,5-b]indole-6-carboxamide] | 24 nM
8 | CCOC(=O)CNC(=O)C1CCc2[nH]c3ncnc(Nc4ccc(F)cc4OCCO)c3c2C1 (racemic) [Example 228, (RS)-Ethyl N-[(4-{[4-fluoro-2-(2-hydroxyethoxy)phenyl]amino}-6,7,8,9-tetrahydro-5H-pyrimido[4,5-b]indol-6-yl)carbonyl]glycinate] | 51 nM
9 | CS(=O)(=O)CCCNC(=O)C1CCc2[nH]c3ncnc(Nc4ccccc4OCC4CC4)c3c2C1 (racemic) [Example 151, (RS)-4-{[2-(Cyclopropylmethoxy)phenyl]amino}-N-[3-(methylsulfonyl)propyl]-6,7,8,9-tetrahydro-5H-pyrimido[4,5-b]indole-6-carboxamide] | 190 nM
10 | CCOC(=O)C1CCc2[nH]c3ncnc(Nc4ccc(F)cc4OCCO)c3c2C1 (racemic) [Example 176, (RS)-Ethyl 4-{[4-fluoro-2-(2-hydroxyethoxy)phenyl]amino}-6,7,8,9-tetrahydro-5H-pyrimido[4,5-b]indole-6-carboxylate] | 174 nM
11 | O=c1[nH]c2cc(Cl)c(Nc3ncnc4[nH]c5c(c34)CCCC5)cc2s1 [Example 236, 5-Chloro-6-(6,7,8,9-tetrahydro-5H-pyrimido[4,5-b]indol-4-ylamino)-1,3-benzothiazol-2(3H)-one] | 55 nM
12 | COc1cc2[nH]ncc2cc1Nc1ncnc2[nH]c3c(c12)CC(C(=O)O)CC3 (racemic) [Example 184, (RS)-4-[(6-Methoxy-1H-indazol-5-yl)amino]-6,7,8,9-tetrahydro-5H-pyrimido[4,5-b]indole-6-carboxylic acid hydrochloride (1:1)] | 26 nM
13 | COP(C)(=O)c1ccc(Nc2ncnc3[nH]c4c(c23)CC(C(=O)NCCCS(C)(=O)=O)CC4)cc1 (racemic) [Example 64, (RS)-Methyl methyl{4-[(6-{[3-(methylsulfonyl)propyl]carbamoyl}-6,7,8,9-tetrahydro-5H-pyrimido[4,5-b]indol-4-yl)amino]phenyl}phosphinate] | 19700 nM
14 | Clc1ccc(Nc2ncnc3[nH]c4c(c23)CCCC4)cc1Cl [Example 114] | 1490 nM
15 | COc1ccc(Cl)cc1Sc1ncnc2[nH]c3c(c12)CC(C(=O)NCCCS(C)(=O)=O)CC3 (racemic) [Example 148, (RS)-4-[(5-Chloro-2-methoxyphenyl)sulfanyl]-N-[3-(methylsulfonyl)propyl]-6,7,8,9-tetrahydro-5H-pyrimido[4,5-b]indole-6-carboxamide] | 1730 nM
16 | CS(=O)(=O)CCCNC(=O)C1CCc2[nH]c3ncnc(Nc4ccc(F)cc4OCCO)c3c2C1 (racemic) [Example 159, (RS)-4-{[4-Fluoro-2-(2-hydroxyethoxy)phenyl]amino}-N-[3-(methylsulfonyl)propyl]-6,7,8,9-tetrahydro-5H-pyrimido[4,5-b]indole-6-carboxamide] | 36 nM
17 | CNC(=O)C1CCc2[nH]c3ncnc(N4CCc5ccccc54)c3c2C1 (racemic) [Example 212, (RS)-4-(2,3-Dihydro-1H-indol-1-yl)-N-methyl-6,7,8,9-tetrahydro-5H-pyrimido[4,5-b]indole-6-carboxamide] | 910 nM
18 | CS(=O)(=O)CCCNC(=O)C1CCc2[nH]c3ncnc(Nc4ccc(OC(F)F)cc4)c3c2C1 (racemic) [Example 31, (RS)-4-{[4-(Difluoromethoxy)phenyl]amino}-N-[3-(methylsulfonyl)propyl]-6,7,8,9-tetrahydro-5H-pyrimido[4,5-b]indole-6-carboxamide] | 2750 nM
19 | c1nc(Nc2ccc3[nH]ncc3c2)c2c3c([nH]c2n1)CCSC3 [Example 66, N-(1H-Indazol-5-yl)-5,7,8,9-tetrahydrothiopyrano[3′,4′:4,5]pyrrolo[2,3-d]pyrimidin-4-amine] | 43 nM
20 | c1ccc(OC2CCOCC2)c(Nc2ncnc3[nH]c4c(c23)CCCC4)c1 [Example 130, N-[2-(tetrahydro-2H-pyran-4-yloxy)phenyl]-6,7,8,9-tetrahydro-5H-pyrimido[4,5-b]indol-4-amine] | 89 nM
21 | COc1ccc(C(F)(F)F)cc1Nc1ncnc2[nH]c3c(c12)CC(C(=O)N1CCN(C)CC1)CC3 (racemic) [Example 215, (RS)-(4-{[2-Methoxy-5-(trifluoromethyl)phenyl]amino}-6,7,8,9-tetrahydro-5H-pyrimido[4,5-b]indol-6-yl)(4-methylpiperazin-1-yl)methanone] | 93 nM
22 | O=C(O)C1CCc2[nH]c3ncnc(Nc4ccc(F)cc4OCCO)c3c2C1 (racemic) [Example 182, (RS)-4-{[4-Fluoro-2-(2-hydroxyethoxy)phenyl]amino}-6,7,8,9-tetrahydro-5H-pyrimido[4,5-b]indole-6-carboxylic acid] | 251 nM
23 | COc1cc(F)ccc1Sc1ncnc2[nH]c3c(c12)CC(C(=O)NCCCS(C)(=O)=O)CC3 (racemic) [Example 147, (RS)-4-[(4-Fluoro-2-methoxyphenyl)sulfanyl]-N-[3-(methylsulfonyl)propyl]-6,7,8,9-tetrahydro-5H-pyrimido[4,5-b]indole-6-carboxamide] | 5920 nM
24 | COc1cc(Cl)c(Cl)cc1Nc1ncnc2[nH]c3c(c12)CC(C(=O)Nc1ccccc1)CC3 (racemic) [Example 22, (RS)-4-[(4,5-Dichloro-2-methoxyphenyl)amino]-N-phenyl-6,7,8,9-tetrahydro-5H-pyrimido[4,5-b]indole-6-carboxamide] | 313 nM
25 | COc1ccc(C(F)(F)F)cc1Nc1ncnc2[nH]c3c(c12)CC(C(=O)O)CC3 (racemic) [Example 103, (RS)-4-{[2-Methoxy-5-(trifluoromethyl)phenyl]amino}-6,7,8,9-tetrahydro-5H-pyrimido[4,5-b]indole-6-carboxylic acid] | 400 nM
26 | COc1ccc(C(F)(F)F)cc1Nc1ncnc2[nH]c3c(c12)CC(C(=O)Nc1ccccc1)CC3 (racemic) [Example 214, (RS)-4-{[2-Methoxy-5-(trifluoromethyl)phenyl]amino}-N-phenyl-6,7,8,9-tetrahydro-5H-pyrimido[4,5-b]indole-6-carboxamide] | 3400 nM

Source: patent publication US20150133426A1, “SUBSTITUTED PYRROLOPYRIMIDINES” (BAYER PHARMA AKTIENGESELLSCHAFT, priority 2012, published 2015)
